Results reported in PubChem BioAssay (NCI).
“And” between values parts separate entries of the source, which are not always exact repeats. Equal values may be shown once.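 Dose response: 5 concentrations. Exposure: 48 h. Format: 96-well plates. Endpoint: linear interpolation; highest concentration if not reached. GI50 = concentration required for 50% inhibition of growth. TGI: total growth inhibition.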

Key:
Test in all cases: growth of human tumour cells (NCI), 48 h
NCI/ADR-RES ovarian = test system: NCI/ADR-RES ovarian
T-47D breast = test system: T-47D breast
HS 578T breast = test system: HS 578T breast
MCF7 breast = test system: MCF7 breast

| SMILES | TGI (NCI/ADR-RES ovarian) | TGI (T-47D breast) | TGI (HS 578T breast) | TGI (MCF7 breast) | GI50 (NCI/ADR-RES ovarian) | GI50 (T-47D breast) | GI50 (HS 578T breast) | GI50 (MCF7 breast) |
| --- | --- | --- | --- | --- | --- | --- | --- | --- |
| CCN(CCO)CC1CCCC2CCCCC21 (configuration not stated) | > 100 µM | > 100 µM | > 100 µM | > 100 µM | – | – | – | – |
| CC[C@@]1(O)C[C@H](OC2CC(N(C)C)C(O)C(C)O2)c2c(O)c3c(c(O)c2[C@H]1OC1CC(N(C)C)C(O)C(C)O1)C(=O)c1cccc(O)c1C3=O (some centres not stated) | 0.842 µM and 0.334 µM | 0.0379 µM | 0.388 µM and 0.0724 µM | 0.381 µM and 0.0743 µM | < 0.01 µM | < 0.01 µM | < 0.01 µM | < 0.01 µM |
| NNC(=O)Nc1cccnc1 | > 100 µM | > 100 µM | – | > 100 µM | – | – | – | – |
| CC/C=C\CCC/C=C1/C(=O)C=C[C@@H]1C/C=C\CCCC(=O)OC | 18 µM | 19.2 µM | 53.3 µM | 13.9 µM | 3.45 µM | 5.16 µM | 10.6 µM | 2.69 µM |
| COc1ccc(-c2nc3sccn3c2/C(N)=N/C(=N)N)cc1OC | > 100 µM | > 100 µM | > 100 µM | > 100 µM | > 100 µM | 29.1 µM | 35.5 µM | 56.9 µM |
| COC1=CC(=O)c2nc(-c3ccncc3)[nH]c2C1=O | > 100 µM | > 100 µM | > 100 µM | > 100 µM | > 100 µM | > 100 µM | 60 µM | > 100 µM |
| O=C1/C(=C/c2cccc([N+](=O)[O-])c2)COc2ccc(O)cc21 | 10.8 µM | 6.3 µM | 9.4 µM | – | 2.93 µM | 2.24 µM | 3 µM | – |
| COc1cc(CNc2cnc3cc(N)cc(N)c3n2)cc(OC)c1 | > 100 µM | – | 52 µM | > 100 µM | 34.3 µM | – | 17 µM | 24.5 µM |
| COc1cc(Cc2cnc(/N=C3\C(=O)N(CN4CCN(c5c(F)cc6c(=O)c(C(=O)O)cn(C7CC7)c6c5OC)CC4C)c4ccc(F)cc43)nc2N)cc(OC)c1OC (configuration not stated) | 29.4 µM | 24.3 µM | 82.5 µM | 52.8 µM | 11.8 µM | 2.85 µM | 23.6 µM | 8.35 µM |
| C=C(CN1CCN(c2ccc(Cl)cc2F)CC1)c1ccc(C(=O)Nc2ccccc2N)cc1 | 5.5 µM | > 100 µM | > 70.6 µM | > 100 µM | 1.97 µM | – | 3.38 µM | 3.08 µM |
| O=C(Nc1ccccc1)NS(=O)(=O)c1ccc(-n2nc3c(c2-c2cccs2)Cc2ccccc2-3)cc1 | 43 µM | > 100 µM | 52.5 µM | > 100 µM | 16.1 µM | 37.9 µM | 16.8 µM | 13.4 µM |
| CCCCOC(=O)C1OC(O[C@H]2CCC3(C)C(CCC4(C)C3CC=C3C5CC(C)(C)CCC5(C(=O)O)CC[C@]34C)C2(C)C)C(OC2OC(CO)C(O)C(O)C2O)C(OC2OC(CO)C(O)C(O)C2O)C1O (some centres not stated) | > 100 µM | > 100 µM | > 100 µM | > 100 µM | 74 µM | 48 µM | 38 µM | 38.4 µM |
| O=C1C=C(Cl)C(=O)C(c2ccc(Cl)cc2)=C1 | 79 µM | 84.4 µM | 74.9 µM | 41.6 µM | – | – | – | – |
| Cc1ccc2c(=O)cc(-c3ccc(F)cc3)[nH]c2n1 | 86.9 µM | > 100 µM | > 100 µM | > 100 µM | – | – | – | – |
| Cn1cc(C2=C(c3cn(C)c4ncccc34)C(=O)NC2=O)c2ccccc21 | > 25 µM | > 23.5 µM | > 19.1 µM | > 25 µM | 11.5 µM | 7.56 µM | 4.17 µM | 7.66 µM |
| O=C1C(Cl)=C(Nc2cccc(Cl)c2)C(=O)N1Cc1ccc(Cl)cc1Cl | 25 µM | > 41.8 µM | 22.9 µM | 41.5 µM | 0.904 µM | 1.72 µM | 1.23 µM | 1.24 µM |
| O=C(/C=C/C12c3ccccc3C(c3ccccc31)C1C(=O)NC(=O)C12)c1ccncc1 (configuration not stated) | 6.71 µM | 12.9 µM | 19.8 µM | 12.6 µM | 2.31 µM | 2.82 µM | 3.04 µM | 2.25 µM |
| CC1(C)CCc2c(c3c(c4c(=O)c(O)c(-c5ccc(O)cc5)oc24)OC(C)(C)CC3)O1 | > 100 µM | > 100 µM | > 100 µM | > 100 µM | 55.7 µM | 72.7 µM | 69.8 µM | > 100 µM |
| CC12CCC(O)CC1CCC1C2CCC2(C)C(C3=CC(=O)OC3)CCC12O (configuration not stated) | 5.77 µM | 14.7 µM | > 100 µM | – | – | – | – | – |

| SMILES | TGI (NCI/ADR-RES ovarian) | TGI (T-47D breast) | TGI (HS 578T breast) | TGI (MCF7 breast) | GI50 (NCI/ADR-RES ovarian) | GI50 (T-47D breast) | GI50 (HS 578T breast) | GI50 (MCF7 breast) |
| --- | --- | --- | --- | --- | --- | --- | --- | --- |
| Cc1coc2c1CC1(C)C(CCC(O)C1C)C2 (configuration not stated) | > 100 µM | > 100 µM | > 100 µM | > 100 µM | – | – | – | – |
| COc1ccc2c(c1)/C(=C/c1c(C)nc3sc(C)nn13)C(=O)N2 | 13.6 µM | > 100 µM | > 68.3 µM | > 100 µM | 1.83 µM | 2.53 µM | 5.16 µM | 1.61 µM |
| Cc1cc(I)cc(CN(C)CCCCN2CCCCC2)c1O | 73.2 µM | 49.3 µM | 23.5 µM | 30 µM | 19.5 µM | 16.1 µM | 8.9 µM | 13.6 µM |
| Cc1ccc(C(=O)/C(=C/c2ccc([N+](=O)[O-])cc2)SCc2ccc(Cl)cc2)cc1 | 6.81 µM | 36.7 µM | 6.96 µM | 3.08 µM | 2.06 µM | 2.9 µM | 2.14 µM | 0.375 µM |
| O=C(Nc1ccc(Cl)c(Cl)c1)Nc1ccc(Cl)c(Cl)c1 | 12.9 µM and 14 µM | 8.12 µM and 49 µM | 19.3 µM and 6.88 µM | 12 µM and 11.6 µM | 3.03 µM and 2.7 µM | 2.01 µM and 4.22 µM | 3.29 µM and 2.08 µM | 2.61 µM and 2.78 µM |
| C#Cc1ccc(-n2c(/C=C/c3ccc(C(F)(F)F)cc3)nc3ncccc3c2=O)cc1 | 7 µM | 4.97 µM | > 100 µM | 10.2 µM | 2.5 µM | 2.02 µM | 3.46 µM | 2.49 µM |
| COc1cc(/C=N/NC(=O)c2ccc(C(F)(F)F)nc2Nc2ccc(Cl)cc2C)ccc1O | 9.97 µM | 18 µM | 16.5 µM | 11.6 µM | 2.66 µM | 1.49 µM | 3.53 µM | 2.02 µM |
| COc1ccc(C(=O)Cn2c(C(=O)c3ccccc3)nc(-c3ccc(OC)cc3)c2-c2ccc(OC)cc2)cc1 | > 100 µM | > 100 µM | > 100 µM | > 100 µM | > 100 µM | > 100 µM | 45.6 µM | > 100 µM |
| CSc1nc2c(c(=O)[nH]1)N=C1c3ccccc3C(=O)C1C(c1ccccc1)N2 (configuration not stated) | 32.1 µM | > 100 µM | 7.18 µM | > 100 µM | 4.54 µM | 4.6 µM | 2.1 µM | 2.4 µM |
| CCOC(=O)[C@]1(OC(C)=O)C[C@H](OC(C)=O)[C@@H](C(F)COP(=O)(OCc2ccccc2)OCc2ccccc2)O1 (some centres not stated) | > 100 µM | 93.1 µM and > 100 µM | > 100 µM | 45.6 µM and > 100 µM | – | 34.2 µM and > 100 µM | – | 20.8 µM and > 100 µM |
| CC1=C(C(=O)Nc2ccc(Cl)c(Cl)c2)C(c2cccc(Oc3ccccc3)c2)NC(=S)N1 (configuration not stated) | 17.4 µM | 21.4 µM | 13.5 µM | – | 10.2 µM | 10.9 µM | 5.03 µM | – |
| c1ccc2cc(-c3cc(-c4cc(-c5ccc6ccccc6c5)on4)no3)ccc2c1 | > 100 µM | > 100 µM | > 100 µM | > 100 µM | – | – | – | – |
| COc1cc(-c2nn(-c3ccc(NC(=O)c4ccc(Cl)c(C(F)(F)F)c4)cc3)cc2-c2ccncc2)ccc1Cl | > 100 µM | > 100 µM | 4.03 µM | > 100 µM | 3.63 µM | 2.98 µM | 1.23 µM | 3.05 µM |
| COc1ccc2c(C3=C(c4cn(C)c5ccccc45)C(=O)NC3=O)cn(C)c2c1 | > 25 µM | – | > 25 µM | > 25 µM | 0.0928 µM | – | 0.113 µM | 0.0853 µM |
| NC(=O)c1sc(-n2cnc3ccccc32)cc1OCc1ccccc1Br | > 25 µM | > 25 µM | > 25 µM | > 25 µM | 0.869 µM | 23.1 µM | 9.11 µM | 0.86 µM |
| CCCCCN(CCCCC)CCCNc1c2c(nc3ccc(Cl)cc13)CCCC2 | 6.11 µM | 6.17 µM | – | 8.34 µM | 2.15 µM | 2.6 µM | – | 2.46 µM |
| CO[C@H](C(=O)[C@@H](O)[C@@H](C)O)[C@@H]1Cc2cc3cc(O[C@H]4C[C@@H](O[C@H]5C[C@@H](O)[C@H](O)C(C)O5)[C@H](O)C(C)O4)c(C)c(O)c3c(O)c2C(=O)[C@H]1O[C@H]1C[C@@H](O[C@H]2C[C@@H](O[C@H]3C[C@](C)(O)C(=O)C(C)O3)[C@@H](O)C(C)O2)[C@H](O)C(C)O1 (some centres not stated) | > 33.2 µM | – | 8.25 µM | > 33.2 µM | 15.3 µM | 0.0663 µM | 0.0723 µM | 0.0208 µM |
| COC1=CC(c2ccc[nH]2)=N/C1=C\c1[nH]c(C)c(C(=O)OC(C)C)c1C | 1.42 µM | 1.74 µM | 0.34 µM | 1.9 µM | 0.0367 µM | 0.0522 µM | 0.0445 µM | 0.0487 µM |
